Results as given in patent publication US9018173B2, “Materials and methods for suppressing inflammatory and neuropathic pain” (Indiana University Research and Technology Corp., priority 2010, dated 2015).
Residues, ends and D or L forms follow the SMILES beside them.

System: capsaicin-evoked nocifensive behavior
Experiment: Capsaicin eye-wipe test
Format: in vivo, rat
Details: peptide alone
Protocol: Referring now to FIG. 16. TAT-CBD3 reduces acute, inflammatory and neuropathic pain. (FIG. 16A) Time course of number of flinches following subcutaneous (dorsal surface of paw) injection of formalin (2.5%; 50 μl saline) in animals pretreated with peptides (3-100 μM; 20 μl dorsal surface of paw) 30 min before formalin (n=4-10). (FIG. 16B) The effect of peptides on number of flinches on formalin-induced phase 1 (0-10 min) and phase 2 (15-60 min). *, p<0.05 versus formalin-injected animals. (FIG. 16C) Formalin induces paw edema. Paw thickness was measured 1 h after injection of saline, formalin, and formalin+peptides (100 μM). *, p<0.05 versus saline-injected animals. (FIG. 16D) Pretreatment with TAT-CBD3 attenuates capsaicin-evoked nocifensive behavior. […]
Eye-wipe test. […] TAT CBD3 peptide, TAT control peptide or vehicle was pipetted directly into the right eye in a volume of 40 μl and the resulting nocifensive behavior was measured. […] This nocifensive behavior was recorded for five minutes and followed by capsaicin (3 μM in 40 μl saline) application into the pretreated eye. Nocifensive behavior was again quantified for 5 minutes following capsaicin application, as described previously. […] Significant differences between groups were assessed by two-way analysis of variance with Bonferroni post-tests. Data were analyzed with GraphPad Prism 4.0 (GraphPad, San Diego, Calif., USA). […]

CC(C)C[C@H](NC(=O)CNC(=O)[C@H](CCCNC(=N)N)NC(=O)[C@@H]1CCCN1C(=O)[C@@H](NC(=O)CNC(=O)[C@H](CCCNC(=N)N)NC(=O)[C@H](CC(C)C)NC(=O)[C@H](CCC(=O)O)NC(=O)[C@H](C)NC(=O)[C@H](CC(C)C)NC(=O)[C@H](CCCNC(=N)N)NC(=O)[C@H](CO)NC(=O)[C@H](CCCNC(=N)N)NC(=O)[C@H](C)NC(=O)[C@H](CCCNC(=N)N)NC(=O)[C@H](CCCNC(=N)N)NC(=O)[C@H](CCCNC(=N)N)NC(=O)[C@H](CCC(N)=O)NC(=O)[C@H](CCCNC(=N)N)NC(=O)[C@H](CCCNC(=N)N)NC(=O)[C@H](CCCCN)NC(=O)[C@H](CCCCN)NC(=O)[C@H](CCCNC(=N)N)NC(=O)CNC(=O)[C@@H](N)Cc1ccc(O)cc1)C(C)C)C(=O)O [TAT-CBD3] (H-YGRKKRRQRRRARSRLAELRGVPRGL-OH; N-terminus and C-terminus assumed)
nocifensive behavior on application alone to the cornea: did not induce nocifensive behavior
